Assay results taken from US20250073209A1, “COVALENT TARGETING OF RhoA FOR CANCER THERAPY” (The University of Hong Kong, priority 2023, published 2025).

How the values were obtained:
CRCs = test: MTT assay on CRC cells; assay type: cell-based, human; details: 48 h
Experimental: HCT116 cells was seeded at 2,500 cells/well; HT29, LOVO and SW620 cells were seeded at 4,000 cells/well; CCD-18Co cells were seeded at 10,000/well; and SW480 cells were seeded at 12,000 cells/well in 96 well plate in triplicates. Cells were treated with a concentration gradient of CL16 for 48 hours. Then, cells were incubated with 10% 3-(4,5-Dimethylthiazol-2-yl)-2,5-diphenyltetrazolium bromide (MTT) solution ([…]) in 37° C. for 4 hours. Cells were then lyzed in 10% SDS in […] HCl. Absorbance of individual well was measured at 570 nm. IC50 values were analyzed by nonlinear best-fit regression using Prism Graphpad 9.
As discussed above, overexpression/hyperactivity of RhoA associated with poor prognosis and aggressive behaviors of CRCs (FIG. 8A). Thus, the anti-cancer and anti-metastatic properties of CL16 in CRCs were explored. First, it was confirmed that genetic knockdown of RhoA by siRNA slowed down colony formation and migration of CRCs by using staining (data not shown) and wound healing assay (FIG. 4A). MTT assay was used to determine cell viability of CRCs and normal colon fibroblast CCD-18Co cells treated with CL16 for 48 h (n=3 different biological replicates/group). A much lower expression level of RhoA in normal colon fibroblast CCD-18Co cells was also determined, as compared to CRCs, by western blotting (data not shown). […]

HT29 cells = test: Wound healing assay; assay type: cell-based, human
Experimental: For wound healing assay, HT29 cells were seeded in 90% confluency, a wound was scratched using a P-20 tip the next day. Cell debris was washed with PBS then aspirated. Then, complete DMEM medium with CL16 or Rhosin with corresponding concentration was added to the cells. Wound closure was recorded every 24 hours under light microscope with 10× objective and measurement of wound area was made by ImageJ.
As discussed above, overexpression/hyperactivity of RhoA associated with poor prognosis and aggressive behaviors of CRCs (FIG. 8A). Thus, the anti-cancer and anti-metastatic properties of CL16 in CRCs were explored. First, it was confirmed that genetic knockdown of RhoA by siRNA slowed down colony formation and migration of CRCs by using staining (data not shown) and wound healing assay (FIG. 4A). MTT assay was used to determine cell viability of CRCs and normal colon fibroblast CCD-18Co cells treated with CL16 for 48 h (n=3 different biological replicates/group). A much lower expression level of RhoA in normal colon fibroblast CCD-18Co cells was also determined, as compared to CRCs, by western blotting (data not shown). […] HT29 cells were transfected with siRNA (5 μM) using Dharmafect1 for 48 hours, and protein expressions were then investigated by immunoblotting.

Structure (SMILES): O=C(CCl)N1N=C(c2cc3ccccc3o2)CC1c1ccco1 (centres unmarked) [CL16]
- cytotoxicity (cell viability) (CRCs): cytotoxicity effects
- cell migration (HT29 cells): good efficacy in reducing HT29 cell migration and invasion
